In one assay the test system is HT29 xenograft tumors. The assay is described as follows: in vivo anti-tumor activity on HT29 xenograft tumors (BRAF V600E colorectal model). Set-up: species or system BALB/c Nude mice. Conditions: monotherapy PO QD, 140 mpk, 60 mpk or 30 mpk; compared with encorafenib 24 mpk; FIG. 6. The text has this: (§1) FIG. 1 illustrates a schematic representation of the study design reported in FIG. 2 to and specifies the dosage regime that was used for treating the different cohorts in a colorectal tumour model bearing LS411N xenografts, according to some embodiments. Both models are CRC models and present the BRAF V600E mutation.
FIG. […] Mice were, for example, treated (QD) until day 43 and the graph expresses mean tumour volume [mm3] for the different cohorts.
FIG. 7 reports in vivo anti-tumor activity of a combination of R07276389 at 140 mpk or of encorafenib at 24 mpk, in each instance with 20 mpk of cetuximab on HT29 xenograft tumors in BALB/c Nude mice (10 mice/cohort), according to some embodiments. Monotherapy controls were, for example, also included and the mice were treated (QD) until day 43 and the graph expresses mean tumour volume [mm3] for the different cohorts.
FIG. 8 reports in vivo anti-tumor activity of a combination of R07276389 at 60 mpk or of encorafenib at 24 mpk, in each instance with 20 mpk of cetuximab on HT29 xenograft tumors in BALB/c Nude mice (10 mice/cohort), according to some embodiments. Monotherapy controls were, for example, also included and the mice were treated (QD) until day 43 and the graph expresses mean tumour volume [mm3] for the different cohorts. […]

Another assay has as its system LS411N xenograft tumors. The assay is described as follows: in vivo anti-tumor activity on LS411N xenograft tumors (BRAF V600E colorectal model). Set-up: species or system BALB/c Nude mice. The conditions noted are these: monotherapy PO QD, 20 mpk, 50 mpk or 140 mpk; compared with encorafenib 24 mpk; FIG. 2.
From the text: as §1
FIG. 2 […], or of encorafenib at 24 mpk on LS411N xenograft tumors in BALB/c Nude mice (10 mice/cohort), according to some embodiments. Mice were, for example, treated (QD) until day 43 and the graphs express mean tumour volume [mm3] for the different cohorts.
FIG. 3 reports in vivo anti-tumor activity of a combination of R07276389 at 140 mpk or of encorafenib at 24 mpk, in each instance with 20 mpk of cetuximab on LS411N xenograft tumors in BALB/c Nude mice (10 mice/cohort), according to some embodiments. Monotherapy controls were, for example, also included and the mice were treated (QD) until day 43 and the graph expresses mean tumour volume [mm3] for the different cohorts.
FIG. 4 reports in vivo anti-tumor activity of a combination of R07276389 at 60 mpk or of encorafenib at 24 mpk, in each instance with 20 mpk of cetuximab on LS411N xenograft tumors in BALB/c Nude mice (10 mice/cohort), according to some embodiments. […]

Turning to `Cn1cnc2ccc(Oc3c(F)ccc(NS(=O)(=O)N4CC[C@@H](F)C4)c3C#N)cc2c1=O` [Compound R07276389, (3R)-N-[2-cyano-4-fluoro-3-(3-methyl-4-oxo-quinazolin-6-yl)oxy-phenyl]-3-fluoro-pyrrolidine-1-sulfonamide], the tumour growth inhibition result in the assay with HT29 xenograft tumors and in the assay on LS411N xenograft tumors was “dose-dependent tumour growth inhibition that was significantly higher when compared with encorafenib” each time.

Source of the values: US20260207603A1, “COMBINATION THERAPY FOR CANCER TREATMENT” (Hoffmann-La Roche Inc., priority 2022, published 2026).
